US20250367302A1, “SMALL MOLECULE DRUG-OLIGONUCLEOTIDE CONJUGATE AND USE THEREOF” (SHANGHAI JIAO TONG UNIVERSITY, priority 2022, published 2025)
d = 2'-deoxy (DNA); r = 2'-OH (RNA)

Key:
[1] = tested on: Human corneal epithelial cells (HCECs); experiment: Cellular uptake of FITC-labelled conjugate by flow cytometry; assay type: cell-based
Description: Human corneal epithelial cells (HCECs) were inoculated at a density of 5×10^4 cells/well in a 12-well plate and cultured overnight. After the medium was removed, 0.5 mL of fresh medium containing 10 μM or 100 μM CsA-ASONFKBIZ-h conjugate with FITC fluorescence was added and incubated with HCECs for 6 h, while a well plate without conjugate was used as a blank control (Mock group). After the incubation, the supernatant medium was discarded, and then the cells were digested with trypsin and washed 2 to 3 times with phosphate-buffered saline (PBS, pH=7.2). After the cells were collected, flow cytometric analysis was conducted using a flow cytometer, and experimental results were shown in FIGS. 8A-8B.

NFKBIZ mRNA = NFKBIZ mRNA expression by RT-qPCR in LPS-stimulated HCECs; assay type: cell-based, human; conditions: LPS-stimulated (100 ng/mL) HCECs, 10 μM ASO or siRNA, without transfection reagent, 6 h + 48 h
Description: HCECs were inoculated in a 6-well plate at a density of 1×10^5 cells/well and cultured until adherence. The cells were then stimulated with 100 ng/mL lipopolysaccharide (LPS) overnight. After removing the supernatant, 1 mL of Opti-MEM medium containing ASONFKBIZ-h, ASONFKBIZ-h+Lipofectamine2000 (Lipo2000), and CsA-ASONFKBIZ-h (all containing 10 µM ASO) were added, respectively. Cells without any treatment were used as a blank reference (Mock). After incubation at 37° C. for 6 h, the cells were transferred into DMEM medium and incubated for another 48 h. The cells were collected and RNA was extracted for RT-qPCR to analyze the expression level of the NFKBIZ mRNA in HCECs, and experimental results were shown in FIG. 9. The expression level of NFKBIZ mRNA in HCECs after LPS stimulation was about 1.3 times that of normal cells. […] After adding CsA-ASONFKBIZ-h for co-incubation, the expression of NFKBIZ mRNA was reduced to about 0.8 times that of normal cells.
(§1) HCECs were inoculated in a 6-well plate at a density of 1×10^5 cells/well and cultured until adherence. The cells were then stimulated with 100 ng/mL LPS overnight. After removing the supernatant, 1 mL of Opti-MEM medium containing ASONFKBIZ-h+Lipo2000 complex and 2CsA-ASONFKBIZ-h nanomicelles (all containing 10 µM ASO) were added, respectively. After incubation at 37° C. for 6 h, the cells were transferred into DMEM medium and incubated for another 48 h. The cells were collected and RNA was extracted for RT-qPCR to analyze the expression level of the NFKBIZ mRNA in HCECs, and experimental results were shown in FIG. 12.
as §1, with “ng/ml” for “ng/mL”, “3CsA-ASONFKBIZ-h” for “2CsA-ASONFKBIZ-h”, “15.” for “12.”
HCECs were inoculated in a 6-well plate at a density of 1×10^5 cells/well and cultured until adherence. The cells were then stimulated with 100 ng/mL LPS overnight. 1 mL of Opti-MEM medium containing ASONFKBIZ-h+Lipo2000 complex and CsA3-ASONFKBIZ-h nanomicelles (all containing 10 µM ASO) were added, respectively. After incubation at […]. 37° C. for 6 h, the cells were transferred into DMEM medium and incubated for another 48 h. After collected and RNA was extracted for RT-qPCR to evaluate the expression level of NFKBIZ mRNA in HCECs, and the experimental results were shown in FIG. 23.
HCECs were inoculated in a 6-well plate at a density of 1×10^5 cells/well and cultured overnight until adherence. The cells were then stimulated with 100 ng/ml LPS for 12 h. After removing the supernatant, 1 mL of Opti-MEM medium containing siRNANFKBIZ-h+Lipo2000 complex and nCsA-siRNANFKBIZ-h (n=1, 2, 3) conjugates and nanomicelles (all containing 10 μM siRNA) were added, respectively. After incubation at 37° C. for 6 h, the cells were transferred into DMEM medium and incubated for another 48 h. The cells were collected and RNA was extracted for RT-qPCR to evaluate the expression of NFKBIZ mRNA in HCECs, and experimental results were shown in FIG. 27. […]

Substance	cellular uptake ([1]; 10 μM or 100 μM FITC-labelled conjugate, 6 h)	average fluorescence intensity of cells, 100 UM versus 10 μM conjugate ([1]; FITC-labelled conjugate, 6 h incubation, flow cytometry)	expression of NFKBIZ mRNA relative to normal cells (NFKBIZ mRNA)
CsA-ASONFKBIZ-h: single cyclosporin A (CsA-N3) click-coupled to 3′-DBCO ASO targeting human NFKBIZ gene (SEQ ID NO: 1) (ATCAGACAACGAATCGGGC; 3'-DBCO ASO click-conjugated to one cyclosporin A, sugar and linkages not given here, further chemistry not given here)	effectively taken up by cells	approximately 10 times	about 0.8 times that of normal cells
3CsA-ASONFKBIZ-h: three CsA molecules coupled to 3DBCO ASO targeting human NFKBIZ (SEQ ID 5), self-assembled (ATCAGACAACGAATCGGGCNTNTT; three CsA via DBCO click; modified_base 20 OTHER; n is t base modified with DBCO moiety; modified_base 22 OTHER)	–	–	about 0.75 times that of normal cells
CsA-siRNANFKBIZ-h: one CsA coupled to sense strand of siRNA targeting human NFKBIZ (SEQ ID NO: 9/10) (sense GCCCGAUUCGUUGUCUGAUTT; antisense AUCAGACAACGAAUCGGGCTT; sugars from the 5' end r19 d2, backbone not given here; DBCO clicked to azide-modified cyclosporin A, further chemistry not fully specified)	–	–	level before LPS stimulation
